Assay results: US12029751B2, “Therapeutic agent for nervous system disease” (OSAKA UNIVERSITY, priority 2017, dated 2024)

System: rat sciatic nerve crush injury model
Test: Macrophage phenotypes after sciatic nerve injury (immunohistological evaluation, rat sciatic nerve crush injury model)
Type: in vivo
Set-up: Number of M2 macrophages: unit: per mm^2
Method: Effects of methylcobalamin on macrophage phenotypes after sciatic nerve injury were analyzed by an immunohistological evaluation method. Specifically, the analysis was carried out as follows. Using transverse nerve sections at 2.5 mm in the proximal direction, at the injury site, and at 2.5, 5.0, and 7.5 mm in the distal direction, macrophages were evaluated by immunofluorescence staining at 1, 3, 7, and 14 days after sciatic nerve injury. The proximal direction refers to a cell body side of an axon with respect to an injury site, and the distal direction refers to a terminal side of an axon with respect to an injury site. Each of the distances indicates a distance from the injury site (the same applies to Example 8). Macrophages were labeled with CD68, an M1 marker iNOS, and an M2 marker CD206. The proportion of M1 macrophage was calculated by the following formula: Proportion of M1 macrophage (%)=number of M1-marker positive macrophages per mm^2/number of macrophages per mm^2×100. A more detailed description will be provided below.
Six-week-old male Wistar rats (about 200 g) were used. The left sciatic nerve was exteriorized, and crush injury of the sciatic nerve was made on the proximal side by forceps. The nerve was crushed for 10 seconds three times at 10-second intervals. The fascia and skin were sutured using 3-0 nylon. A non-injury group which underwent only sciatic nerve exposure, an untreated group, and a methylcobalamin treatment group were compared. To administer methylcobalamin continuously, an osmotic minipump was placed and left in the dorsal subcutaneous space, and methylcobalamin was administered at a dose of 1 mg/kg/day. In an untreated group, physiological saline was administered instead of methylcobalamin according to the same procedure.
At 1, 3, 7, and 14 days after the surgery, rats were anesthetized with an anesthetic agent. The left sciatic nerve was collected, fixed with 4% PFA for 7 days and with 20% sucrose for 24 hours, and the fixed nerve was freeze-embedded. The embedded tissue was sliced into a 5-μm-thick slice in a nerve short-axis direction and placed on a glass slide. Slices were obtained from 5 positions of 2.5 mm in the proximal direction from an injured region, the injured region, and 2.5, 5.0, and 7.5 mm in the distal direction. The slices were dried for 1 hour and fixed with 95% methanol for 30 minutes. The fixed slices were blocked and allowed to react with primary antibodies at 4° C. overnight. The cells were further allowed to react with a secondary antibody at room temperature for 1 hour so that the nuclei were labeled with DAPI.
The primary antibodies used were a mouse anti-CD68 monoclonal antibody (Abcam), a rabbit anti-iNOS monoclonal antibody (Abcam), a rabbit anti-CD206 monoclonal antibody (Abeam), a rabbit anti-neurofilament 200 (NF 200) polyclonal antibody (SIGMA), and a mouse anti-myelin basic protein (MBP) monoclonal antibody (Calbiochem). The secondary antibodies used were an Alexa 488-labeled goat anti-mouse IgG antibody (Life Technologies), an Alexa 488-labeled goat anti-rabbit IgG antibody (Life Technologies), an Alexa 568-labeled goat anti-mouse IgG antibody (Life Technologies), and an Alexa 568-labeled goat anti-rabbit IgG antibody (Life Technologies).

[1] = POD1, 2.5 mm in the distal direction, 1 mg/kg/day
[2] = POD1, 2.5 mm in the proximal direction, 1 mg/kg/day
[3] = POD1, 5.0 mm in the distal direction, 1 mg/kg/day
[4] = POD1, 7.5 mm in the distal direction, 1 mg/kg/day
[5] = POD3, 2.5 mm in the distal direction, 1 mg/kg/day
[6] = POD3, 2.5 mm in the proximal direction, 1 mg/kg/day
[7] = POD3, 5.0 mm in the distal direction, 1 mg/kg/day
[8] = POD3, 7.5 mm in the distal direction, 1 mg/kg/day
[9] = POD7, 2.5 mm in the distal direction, 1 mg/kg/day
[10] = POD7, 2.5 mm in the proximal direction, 1 mg/kg/day
[11] = POD7, 5.0 mm in the distal direction, 1 mg/kg/day
[12] = POD7, 7.5 mm in the distal direction, 1 mg/kg/day
[13] = POD14, 2.5 mm in the distal direction, 1 mg/kg/day
[14] = POD14, 2.5 mm in the proximal direction, 1 mg/kg/day
[15] = POD14, 5.0 mm in the distal direction, 1 mg/kg/day
[16] = POD14, 7.5 mm in the distal direction, 1 mg/kg/day
[17] = POD14, Injury site, 1 mg/kg/day

For `C/C1=C2/[N-][C@H]([C@H](CC(N)=O)[C@@]2(C)CCC(=O)NC[C@@H](C)OP(=O)([O-])O[C@H]2[C@@H](O)[C@@H](n3cnc4cc(C)c(C)cc43)O[C@@H]2CO)[C@]2(C)N=C(/C(C)=C3N=C(/C=C4N=C1[C@@H](CCC(N)=O)C\4(C)C)[C@@H](CCC(N)=O)[C@]\3(C)CC(N)=O)[C@@H](CCC(N)=O)[C@]2(C)CC(N)=O.[CH3-].[Co+3]` [MeCbl, methylcobalamin], the “Number of M2 macrophages” value (POD1, 2.5 mm in the distal direction) was 46.53, the M1 macrophage ratio [1] was 0.183 and the M2 macrophage ratio [1] was 0.658. For the same compound, the “Number of M1 macrophages” value [1] was 10.27 per mm^2, the Number of macrophages [1] was 64.37 per mm^2 and the “Number of M2 macrophages” value (POD1, 2.5 mm in the proximal direction) was 32.72. The M1 macrophage ratio [2] was 0.095, the M2 macrophage ratio [2] was 0.743 and the “Number of M1 macrophages” value [2] was 3.42 per mm^2. The Number of macrophages [2] was 40.53 per mm^2, the “Number of M2 macrophages” value (POD1, 5.0 mm in the distal direction) was 33.90 and the M1 macrophage ratio [3] was 0.109. For the same compound, the M2 macrophage ratio [3] was 0.765, the “Number of M1 macrophages” value [3] was 4.40 per mm^2 and the Number of macrophages [3] was 43.67 per mm^2. The “Number of M2 macrophages” value (POD1, 7.5 mm in the distal direction) was 32.83, the M1 macrophage ratio [4] was 0.097 and the M2 macrophage ratio [4] was 0.777. For the same compound, the “Number of M1 macrophages” value [4] was 3.21 per mm^2, the Number of macrophages [4] was 35.68 per mm^2 and the “Number of M2 macrophages” value (POD1, Injury site) was 139.28. For the same compound, the M1 macrophage ratio (POD1, Injury site, 1 mg/kg/day) was 0.195, the M2 macrophage ratio (POD1, Injury site, 1 mg/kg/day) was 0.431 and the “Number of M1 macrophages” value (POD1, Injury site, 1 mg/kg/day) was 63.55 per mm^2. The Number of macrophages (POD1, Injury site, 1 mg/kg/day) was 336.86 per mm^2, the “Number of M2 macrophages” value (POD3, 2.5 mm in the distal direction) was 147.74 and the M1 macrophage ratio [5] was 0.165. The M2 macrophage ratio [5] was 0.693, the “Number of M1 macrophages” value [5] was 23.50 per mm^2 and the Number of macrophages [5] was 181.38 per mm^2. The “Number of M2 macrophages” value (POD3, 2.5 mm in the proximal direction) was 43.76, the M1 macrophage ratio [6] was 0.068 and the M2 macrophage ratio [6] was 0.708. For the same compound, the “Number of M1 macrophages” value [6] was 3.04 per mm^2, the Number of macrophages [6] was 48.52 per mm^2 and the “Number of M2 macrophages” value (POD3, 5.0 mm in the distal direction) was 117.16. For the same compound, the M1 macrophage ratio [7] was 0.145, the M2 macrophage ratio [7] was 0.659 and the “Number of M1 macrophages” value [7] was 13.13 per mm^2. The Number of macrophages [7] was 135.88 per mm^2, the “Number of M2 macrophages” value (POD3, 7.5 mm in the distal direction) was 115.48 and the M1 macrophage ratio [8] was 0.186. For the same compound, the M2 macrophage ratio [8] was 0.694, the “Number of M1 macrophages” value [8] was 15.57 per mm^2 and the Number of macrophages [8] was 124.99 per mm^2. For the same compound, the “Number of M2 macrophages” value (POD3, Injury site) was 603.12, the M1 macrophage ratio (POD3, Injury site, 1 mg/kg/day) was 0.163 and the M2 macrophage ratio (POD3, Injury site, 1 mg/kg/day) was 0.479. For the same compound, the “Number of M1 macrophages” value (POD3, Injury site, 1 mg/kg/day) was 198.96 per mm^2, the Number of macrophages (POD3, Injury site, 1 mg/kg/day) was 1261.77 per mm^2 and the Number of macrophages (POD3, Injury site, 1 mg/kg/day, listed as methylcobalamin) was “significantly decreased”. The “Number of M2 macrophages” value (POD7, 2.5 mm in the distal direction) was 457.16, the M1 macrophage ratio [9] was 0.043 and the M2 macrophage ratio [9] was 0.463. The “Number of M1 macrophages” value [9] was 37.09 per mm^2, the Number of macrophages [9] was 921.92 per mm^2 and the “Number of M2 macrophages” value (POD7, 2.5 mm in the proximal direction) was 26.25. The M1 macrophage ratio [10] was 0.049, the M2 macrophage ratio [10] was 0.642 and the “Number of M1 macrophages” value [10] was 1.54 per mm^2. For the same compound, the Number of macrophages [10] was 36.63 per mm^2, the “Number of M2 macrophages” value (POD7, 5.0 mm in the distal direction) was 432.13 and the M1 macrophage ratio [11] was 0.039. The M2 macrophage ratio [11] was 0.505, the “Number of M1 macrophages” value [11] was 25.29 per mm^2 and the Number of macrophages [11] was 763.17 per mm^2. The “Number of M2 macrophages” value (POD7, 7.5 mm in the distal direction) was 327.16, the M1 macrophage ratio [12] was 0.045 and the M2 macrophage ratio [12] was 0.506. The “Number of M1 macrophages” value [12] was 22.71 per mm^2, the Number of macrophages [12] was 584.14 per mm^2 and the “Number of M2 macrophages” value (POD7, Injury site) was 654.63. The M1 macrophage ratio (POD7, Injury site, 1 mg/kg/day) was 0.046, the M2 macrophage ratio (POD7, Injury site, 1 mg/kg/day) was 0.571 and the “Number of M1 macrophages” value (POD7, Injury site, 1 mg/kg/day) was 47.56 per mm^2. For the same compound, the Number of macrophages (POD7, Injury site, 1 mg/kg/day) was 1096.37 per mm^2, the Number of macrophages (POD7, Injury site, 1 mg/kg/day, listed as methylcobalamin) was “significantly decreased” and the “Number of M2 macrophages” value (POD14, 2.5 mm in the distal direction) was 443.91. The M1 macrophage ratio [13] was 0.033, the M2 macrophage ratio [13] was 0.459 and the “Number of M1 macrophages” value [13] was 27.86 per mm^2. For the same compound, the Number of macrophages [13] was 898.81 per mm^2, the “Number of M2 macrophages” value (POD14, 2.5 mm in the proximal direction) was 35.65 and the M1 macrophage ratio [14] was 0.039. For the same compound, the M2 macrophage ratio [14] was 0.638, the “Number of M1 macrophages” value [14] was 2.34 per mm^2 and the Number of macrophages [14] was 51.79 per mm^2. For the same compound, the “Number of M2 macrophages” value (POD14, 5.0 mm in the distal direction) was 434.68, the M1 macrophage ratio [15] was 0.029 and the M2 macrophage ratio [15] was 0.487. The “Number of M1 macrophages” value [15] was 22.35 per mm^2, the Number of macrophages [15] was 827.51 per mm^2 and the “Number of M2 macrophages” value (POD14, 7.5 mm in the distal direction) was 417.86. For the same compound, the M1 macrophage ratio [16] was 0.024, the M2 macrophage ratio [16] was 0.487 and the “Number of M1 macrophages” value [16] was 15.59 per mm^2. The Number of macrophages [16] was 752.29 per mm^2, the “Number of M2 macrophages” value (POD14, Injury site) was 560.45 and the M1 macrophage ratio [17] was 0.025. The M2 macrophage ratio [17] was 0.610, the “Number of M1 macrophages” value [17] was 21.33 per mm^2 and the Number of macrophages [17] was 899.57 per mm^2. The Number of macrophages (POD14, Injury site, 1 mg/kg/day, listed as methylcobalamin) was “significantly decreased”, the “numbers of M1 macrophages as compared to the untreated group” value (all evaluation days (1, 3, 7, 14 days), 1 mg/kg/day) was “significantly decreased” and the “numbers of M1 macrophages as compared to the untreated group” value (distal portions, 7 and 14 days after the surgery, 1 mg/kg/day) was “significant differences”. The “number of macrophages as compared to the untreated group” value (distal positions, 14 days after the surgery, 1 mg/kg/day) was “significant difference” and the “numbers of M2 macrophages as compared to the untreated group” value (injury site, 1, 7 and 14 days after the surgery, 1 mg/kg/day) was “significantly increased”.
